This passage reports GI50 and TGI results from PubChem BioAssay (NCI).

“And” between values parts separate entries of the source, which are not always exact repeats. Identical values can stand only once.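 Assay format: 96-well plates, 48-hour exposure. At the GI50, growth is halved. Definition used: TGI = concentration required for complete inhibition of growth.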 Bounds are passed on as bounds.

Test systems include ACHN renal; COLO 205 colon; MDA-MB-435; NCI-H226 lung; SF-268 CNS; SF-539 CNS; SK-MEL-2 melanoma; SNB-75 CNS; UACC-62 melanoma; UO-31 renal.
Assay in all cases: NCI tumour cell line growth inhibition, 48 h

Turning to `C[C@H]1C(Oc2ccc(O)cc2)OC2OC3(C)CCC4[C@H](C)CCC1C24OO3` (some centres not stated), the GI50 in the assay with ACHN renal was 3.97 µM; in the assay on COLO 205 colon, 867 nM; with MDA-MB-435, 12400 nM; in the assay on NCI-H226 lung it was 15.9 µM; in the assay on SF-268 CNS, 12.9 µM; with SF-539 CNS it was 16.3 µM. Besides, the GI50 is 7.1 µM with SK-MEL-2 melanoma, 17600 nM in the assay on SNB-75 CNS, 12300 nM with UACC-62 melanoma and 11000 nM in the assay with UO-31 renal. The TGI was found to be 19 µM with ACHN renal; 13.7 µM in the assay with COLO 205 colon; 46.3 µM in the assay on MDA-MB-435; 31.2 µM in the assay with NCI-H226 lung; 27.2 µM in the assay on SF-268 CNS; 33 µM with SF-539 CNS. The TGI worked out at 23 µM with SK-MEL-2 melanoma, 39.3 µM in the assay with SNB-75 CNS, 25.5 µM in the assay on UACC-62 melanoma and 26.2 µM in the assay on UO-31 renal.

For the molecule `C/C(Cc1ccc(Cl)cc1)=C(/c1ccc(Cl)cc1)c1ccc(OCCN(C)C)cc1`, the GI50 is 5.12 µM in the assay with ACHN renal; 1000 nM in the assay with COLO 205 colon; 4520 nM in the assay with MDA-MB-435; 4.99 µM with NCI-H226 lung; 5.01 µM with SF-268 CNS; 4.77 µM in the assay with SF-539 CNS. Further, the GI50 is 5.69 µM in the assay on SK-MEL-2 melanoma, 3470 nM in the assay on SNB-75 CNS, 5190 nM in the assay on UACC-62 melanoma and 4270 nM in the assay on UO-31 renal. For the same molecule, the TGI in the assay with ACHN renal came out at 9.56 µM; in the assay on COLO 205 colon, 4.53 µM; in the assay with MDA-MB-435 it was 8.81 µM; in the assay with NCI-H226 lung, 10.5 µM; in the assay on SF-268 CNS, 10.1 µM; in the assay on SF-539 CNS, 9.22 µM. In addition, the TGI with SK-MEL-2 melanoma was determined as 11.4 µM; in the assay on SNB-75 CNS it was 7.93 µM; in the assay on UACC-62 melanoma it was 9.75 µM; in the assay on UO-31 renal, 8.65 µM.

Regarding `COc1ccc(Cn2cc3c(c2-c2cc(OC)c(OC)c(OC)c2)CCc2cnoc2-3)cc1[N+](=O)[O-]`, the GI50 was 2.88 µM with ACHN renal; 730 nM with COLO 205 colon; 219 nM in the assay with MDA-MB-435; 4.33 µM in the assay on NCI-H226 lung; 3.79 µM with SF-268 CNS; 1.12 µM in the assay on SF-539 CNS. The GI50 with SK-MEL-2 melanoma is 0.366 µM; in the assay with SNB-75 CNS, 849 nM; in the assay with UACC-62 melanoma, 404 nM; in the assay on UO-31 renal, 1260 nM. Also, the TGI in the assay with ACHN renal is over 100 µM; with COLO 205 colon it was 3.28 µM; with MDA-MB-435 it was 0.612 µM; in the assay with NCI-H226 lung it was over 100 µM; in the assay with SF-268 CNS, over 100 µM; in the assay on SF-539 CNS it was 13.8 µM. In addition, the TGI in the assay on SK-MEL-2 melanoma was 10.3 µM; with UACC-62 melanoma, over 100 µM; in the assay with UO-31 renal, over 100 µM.

As for `COc1ccccc1S(=O)(=O)Nc1ccc2c(c1)CN(C)C(=O)N2`, the GI50 was 4.76 µM and 8.29 µM in the assay with ACHN renal; 2610 nM and 2800 nM in the assay with COLO 205 colon; 4240 nM and 2630 nM in the assay with MDA-MB-435; 9.98 µM and 16 µM in the assay with NCI-H226 lung; 20 µM and 24.7 µM with SF-268 CNS; 4.68 µM and 4.87 µM with SF-539 CNS. The GI50 in the assay on SK-MEL-2 melanoma was 6.48 µM and 29.5 µM; in the assay on SNB-75 CNS, 266 nM and 481 nM; in the assay with UACC-62 melanoma, 1260 nM and 1120 nM; in the assay with UO-31 renal, 1410 nM and 1050 nM. Moreover, the TGI in the assay on ACHN renal is over 100 µM; with COLO 205 colon, over 100 µM; in the assay with MDA-MB-435, over 100 µM; in the assay with NCI-H226 lung it was over 100 µM; with SF-268 CNS, over 100 µM; in the assay on SF-539 CNS, 99.2 µM and > 100 µM. The TGI in the assay on SK-MEL-2 melanoma, in the assay on UACC-62 melanoma and in the assay with UO-31 renal was over 100 µM in each case.

`CC(=O)[O][Hg][c]1ccccc1`: the GI50 is 1.23 µM in the assay with ACHN renal; 650 nM in the assay with COLO 205 colon; 808 nM with MDA-MB-435; 1.12 µM in the assay with NCI-H226 lung; 1.14 µM with SF-268 CNS; 1.42 µM with SF-539 CNS. Moreover, the GI50 is 0.401 µM in the assay on SK-MEL-2 melanoma, 771 nM in the assay on SNB-75 CNS, 587 nM in the assay with UACC-62 melanoma and 1230 nM in the assay with UO-31 renal. Further, the TGI in the assay on ACHN renal worked out at 2.61 µM; in the assay with COLO 205 colon, 1.67 µM; in the assay with MDA-MB-435, 2.19 µM; with NCI-H226 lung, 4.81 µM; in the assay on SF-268 CNS, 2.64 µM; with SF-539 CNS it was 2.83 µM. In addition, the TGI in the assay with SK-MEL-2 melanoma came to 1.27 µM; in the assay on SNB-75 CNS, 2.2 µM; with UACC-62 melanoma it was 1.91 µM; in the assay on UO-31 renal it was 2.54 µM.

Turning to `Cn1c(=S)c2[nH]c(SCCN3CCCC3)nc2n(C)c1=O`, the TGI with ACHN renal, in the assay on COLO 205 colon, in the assay on MDA-MB-435, with NCI-H226 lung, in the assay on SF-268 CNS and in the assay on SF-539 CNS was over 100 µM each time. Besides, the TGI in the assay on SK-MEL-2 melanoma, in the assay with SNB-75 CNS, in the assay on UACC-62 melanoma and in the assay with UO-31 renal was over 100 µM in each case.

As to `O=C1c2c(O)cc(O)cc2OC(c2ccc(O)cc2O)C1O` (configuration not stated), the GI50 with ACHN renal is over 100 µM; in the assay on COLO 205 colon, over 100000 nM; in the assay with NCI-H226 lung it was over 100 µM; with SF-268 CNS, over 100 µM; with SF-539 CNS, over 100 µM; in the assay on SK-MEL-2 melanoma it was over 100 µM. The GI50 with SNB-75 CNS, in the assay with UACC-62 melanoma and in the assay with UO-31 renal was over 100000 nM throughout. For the same molecule, the TGI with ACHN renal, in the assay with COLO 205 colon, with MDA-MB-435, in the assay on NCI-H226 lung, in the assay on SF-268 CNS and in the assay with SF-539 CNS was over 100 µM each time. For the same molecule, the TGI in the assay with SK-MEL-2 melanoma, with SNB-75 CNS, with UACC-62 melanoma and in the assay with UO-31 renal was over 100 µM each time.

Take `C#CCOc1cccc(Nc2ncnc3ccc(NC(=O)CCl)cc23)c1`: the GI50 with ACHN renal was 0.253 µM; in the assay on COLO 205 colon, 463 nM; with MDA-MB-435, 1400 nM; in the assay on NCI-H226 lung, 7.43 µM; in the assay with SF-268 CNS, 0.674 µM; with SF-539 CNS it was 2.83 µM. For the same molecule, the GI50 was 4.07 µM with SK-MEL-2 melanoma, 1870 nM in the assay with SNB-75 CNS, 1650 nM in the assay on UACC-62 melanoma and 312 nM in the assay with UO-31 renal. Further, the TGI is 7.73 µM in the assay on ACHN renal; 16.8 µM in the assay with COLO 205 colon; 20.2 µM in the assay on MDA-MB-435; over 100 µM in the assay on NCI-H226 lung; 10.3 µM in the assay with SF-268 CNS; 7.23 µM with SF-539 CNS. The TGI was 24.1 µM in the assay on SK-MEL-2 melanoma, over 100 µM in the assay with SNB-75 CNS, 20.3 µM in the assay with UACC-62 melanoma and 7.11 µM in the assay on UO-31 renal.
